For one experiment, the system named is dog. The following applies: Diaz et al., Am. J. Cardiol. 40: 541-549, 1977; cited from earlier work.
A further experiment relates to beagle dogs. The experiment is described as follows: In vivo assay: myocardial infarct size following coronary artery occlusion (1 hr) and reperfusion (5 hr) in anesthetized dogs. Further details: species or system dog. The following applies: dogs infused with aprotinin, control dogs 37.9±5.4%, P<0.05.

The text below walks through data of patent US5455229A, “Method for minimizing and containing ischemic and reperfusion injury” (Eli Lilly and Company, priority 1992, dated 1995).

Protocol for beagle dogs: Adult male beagle dogs weighing approximately 9-14 kg were anesthetized with pentobarbital sodium (30 mg/kg, i.v.). The tracheae were intubated, and the dogs were ventilated with room air delivered from a Harvard respirator (ventilation rate of 16 cycles/min, tidal volume, 25 ml/kg). Body temperature was maintained at 37-°38° C. with a heating pad. Catheters were placed in the left femoral artery and vein for measurement of phasic arterial blood pressure (Starham transducer, P23ID) and i.v. infusion of drug solutions, respectively. Mean arterial blood pressure was calculated as diastolic blood pressure plus 1/3 pulse pressure. Cardiac rate was monitored by a cardiotachometer that was triggered by the systolic pressure pulse, while the pressure rate product was monitored as an index of myocardial oxygen demand. […] Directly measured parameters were recorded continuously on a multichannel oscillograph (Beckman Instruments,Inc., Fullerton Calif.; model R611).
A left thoracotomy was performed at the fifth intercostal space, the heart was suspended in a pericardial cradle, and the left circumflex coronary artery (LCX) was isolated distal to its atrial branch and proximal to any major ventricular branches. Baseline circumflex coronary artery blood flow was measured using a calibrated flowprobe (Carolina Medical Electronics, 6 mm I.C.) connected to a Carolina flowmeter (model FM501). […]

aprotinin [reference compound]: the “myocardial ischemic injury associated with coronary artery occlusion” value with dog is on record as “has been shown to limit myocardial ischemic injury”. Moreover, the “infarct size, % of the left ventricular mass at risk of necrosis” value with beagle dogs came to 24.8±2.4%.
